In patent US11051515B2, “3-acyl-benzamides and their use as herbicides” (Bayer Aktiengesellschaft, priority 2017, dated 2021):

What was measured:
ECHCG [1] = test: Pre-emergence action against ECHCG; type: in vivo, Echinochloa crus-galli; conditions: Echinochloa crus-galli, 504 h; pre-emergence, dosage 320 g/ha, scored visually after 3 weeks vs untreated controls; read-out: Pre-emergence action against ECHCG (herbicidal activity)
In short: (§1)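 Seeds sown in sandy loam in wood-fiber pots and covered with soil. Greenhouse growth; visual damage scored after 3 weeks versus untreated controls (100% = dead, 0% = like control).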

ALOMY [2] = test: Pre-emergence action against ALOMY; type: in vivo, Alopecurus myosuroides; conditions: Alopecurus myosuroides, 504 h; dosage 320 g/ha; pre-emergence; scored visually after 3 weeks vs untreated controls; 100% = plants have died, 0% = like control plants; read-out: Pre-emergence action against ALOMY (herbicidal activity in percent)
In short: as §1

VERPE = test: Post-emergence action against VERPE; type: in vivo, Veronica persica; conditions: Veronica persica, 504 h, dosage 80 g/ha
In short: (§2)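 Post-emergence foliar spray on greenhouse plants at the one-leaf stage, using wettable-powder or emulsion-concentrate formulations in water (600 to […], plus 0.2% wetting agent). Damage scored by eye roughly 3 weeks later against untreated plants: 0% = like control, 100% = dead.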

ALOMY [3] = test: Post-emergence action against ALOMY; type: in vivo, Alopecurus myosuroides; conditions: Alopecurus myosuroides, 504 h; Dosage 80 g/ha, post-emergence
In short: as §2

STEME = test: Pre-emergence action against STEME; type: in vivo, Stellaria media; conditions: Stellaria media, 504 h; Dosage 320 g/ha, pre-emergence
In short: as §1

SETVI [4] = test: Pre-emergence action against SETVI; type: in vivo, Setaria viridis; conditions: Setaria viridis, 504 h; pre-emergence, dosage 320 g/ha, scored visually after 3 weeks vs untreated controls; read-out: SETVI (Table B8, pre-emergence herbicidal activity)
In short: as §1

ECHCG [5] = test: Post-emergence action against ECHCG; type: in vivo, Echinochloa crus-galli; conditions: Echinochloa crus-galli, 504 h; post-emergence, dosage 80 g/ha, visual assessment about 3 weeks after treatment vs untreated controls; read-out: Post-emergence action against ECHCG (herbicidal action in percent)
In short: as §2

PHBPU [6] = test: Post-emergence action against PHBPU; type: in vivo, Pharbitis purpurea; conditions: Ipomoea purpurea, 504 h; post-emergence, dosage 80 g/ha
In short: as §2

PHBPU [7] = test: Pre-emergence action against PHBPU; type: in vivo, Pharbitis purpurea; conditions: Ipomoea purpurea, 504 h; Dosage 320 g/ha, pre-emergence
In short: as §1

POLCO = test: Post-emergence action against POLCO; type: in vivo, Polygonum convolvulus; conditions: Fallopia convolvulus, 504 h; post-emergence, dosage 80 g/ha
In short: as §2

VIOTR = test: Pre-emergence action against VIOTR; type: in vivo, Viola tricolor; conditions: Viola tricolor, 504 h; Dosage 320 g/ha, pre-emergence
In short: as §1

MATIN [8] = test: Pre-emergence action against MATIN; type: in vivo, Matricaria inodora; conditions: Tripleurospermum inodorum, 504 h; Dosage 320 g/ha, pre-emergence
In short: as §1

MATIN [9] = test: Post-emergence action against MATIN; type: in vivo, Matricaria inodora; conditions: Tripleurospermum inodorum, 504 h; post-emergence, dosage 80 g/ha, visual assessment about 3 weeks after treatment vs untreated controls; read-out: Post-emergence action against MATIN (herbicidal action in percent)
In short: as §2

ABUTH = test: Post-emergence action against ABUTH; type: in vivo, Abutilon theophrasti; conditions: Abutilon theophrasti, 504 h; post-emergence, dosage 80 g/ha, visual assessment about 3 weeks after treatment vs untreated controls; read-out: Post-emergence action against ABUTH (herbicidal action in percent)
In short: as §2

SETVI [10] = test: Post-emergence action against SETVI; type: in vivo, Setaria viridis; conditions: Setaria viridis, 504 h; post-emergence, dosage 80 g/ha, visual assessment about 3 weeks after treatment vs untreated controls; read-out: Post-emergence action against SETVI (herbicidal action in percent)
In short: as §2

AMARE [11] = test: Pre-emergence action against AMARE; type: in vivo, Amaranthus retroflexus; conditions: Amaranthus retroflexus, 504 h; pre-emergence, dosage 320 g/ha, scored visually after 3 weeks vs untreated controls; read-out: Pre-emergence action against AMARE (herbicidal activity)
In short: as §1

AMARE [12] = test: Post-emergence action against AMARE; type: in vivo, Amaranthus retroflexus; conditions: Amaranthus retroflexus, 504 h; post-emergence, dosage 80 g/ha, visual assessment about 3 weeks after treatment vs untreated controls; read-out: Post-emergence action against AMARE (herbicidal action in percent)
In short: as §2

CYPES [13] = test: Post-emergence action against CYPES; type: in vivo, Cyperus esculentus; conditions: Cyperus esculentus, 504 h; post-emergence, dosage 80 g/ha, visual assessment about 3 weeks after treatment vs untreated controls; read-out: Post-emergence action against CYPES (herbicidal action in percent)
In short: as §2

CYPES [14] = test: Pre-emergence action against CYPES; type: in vivo, Cyperus esculentus; conditions: Cyperus esculentus, 504 h; pre-emergence, dosage 320 g/ha, scored visually after 3 weeks vs untreated controls; read-out: Pre-emergence action against CYPES (herbicidal activity)
In short: as §1

Row | SMILES | pest or weed control at 320 g/ha (ECHCG [1]) [%] | pest or weed control at 320 g/ha (ALOMY [2]) [%] | pest or weed control at 80 g/ha (VERPE) [%] | pest or weed control at 80 g/ha (ALOMY [3]) [%] | pest or weed control at 320 g/ha (STEME) [%] | pest or weed control at 320 g/ha (SETVI [4]) [%] | pest or weed control at 80 g/ha (ECHCG [5]) [%] | pest or weed control at 80 g/ha (PHBPU [6]) [%] | pest or weed control at 320 g/ha (PHBPU [7]) [%] | pest or weed control at 80 g/ha (POLCO) [%] | pest or weed control at 320 g/ha (VIOTR) [%] | pest or weed control at 320 g/ha (MATIN [8]) [%] | pest or weed control at 80 g/ha (MATIN [9]) [%] | pest or weed control at 80 g/ha (ABUTH) [%] | pest or weed control at 80 g/ha (SETVI [10]) [%] | pest or weed control at 320 g/ha (AMARE [11]) [%] | pest or weed control at 80 g/ha (AMARE [12]) [%] | pest or weed control at 80 g/ha (CYPES [13]) [%] | pest or weed control at 320 g/ha (CYPES [14]) [%]
1 | CCC(=O)c1c(C(F)F)ccc(C(=O)Nc2nnnn2C)c1Cl [1-165] | 100 | 100 | 90 | 90 | 100 | 100 | 90 | 90 | 100 | 100 | 100 | 100 | 90 | 90 | 100 | 100 | 90 | – | –
2 | Cn1nnnc1NC(=O)c1ccc(C(F)(F)F)c(C(=O)C2CC2)c1C1CC1 [1-233] | 100 | 100 | 100 | 90 | 100 | 100 | 100 | 100 | 100 | 90 | 100 | 100 | 90 | 100 | 90 | 100 | 90 | – | –
3 | CSc1c(C(=O)Nc2nnnn2C)ccc(C(F)(F)F)c1C(C)=O [1-58] | 100 | 100 | 100 | 90 | 100 | 100 | 100 | 100 | 100 | – | 100 | 100 | 100 | 100 | 100 | 100 | 100 | 90 | 100
